For 34 molecules, IC50 and inhibition results are on record in ChEMBL document CHEMBL1155997, “Design and synthesis of novel substituted quinazoline derivatives as antileishmanial agents” (Bioorg Med Chem Lett, 2009).

The test system of assay [1] is Leishmania donovani. As to the kind of experiment: Antileishmanial activity against Leishmania donovani in luciferase-amastigote system. Format: functional, organism-based.
Assay [2] deals with Leishmania donovani. Briefly: Antileishmanial activity against Leishmania donovani in luciferase-promastigote system at 10 ug/ml. Format: functional.

Values after ≈ are worked out from the molar mass of the structure shown. Active and inactive are the calls of the source. No cut-off for these calls is given here.

The IC50 is the concentration needed to halve the response being measured. What is called inhibition is the change of the read-out against control, counted positive when it falls. The molecule `Clc1ccc(C2NC(N3CCCC3)=NC3=C2CCc2ccccc23)cc1` (configuration not stated) returned an IC50 in the assay with Leishmania donovani [1] of 8.95 µg/mL (≈ 24.6 µM). In the assay on Leishmania donovani [2], testing at 10 µg/mL gave an inhibition of 96.3%.

`Clc1ccc(-c2nc(N3CCCCC3)nc3c2CCc2ccccc2-3)cc1` came in with an inhibition at 10 µg/mL with Leishmania donovani [2] of 53.5%.

The molecule `c1ccc(-c2nc(N3CCN(c4ccccn4)CC3)nc3c2CCc2ccccc2-3)cc1` showed an inhibition at 10 µg/mL in the assay on Leishmania donovani [2] of 62.2%.

Take `c1ccc(C2NC(N3CCN(c4ccccn4)CC3)=NC3=C2CCc2ccccc23)cc1` (configuration not stated): the inhibition at 10 µg/mL with Leishmania donovani [2] came out at 99.4%.

In the assay with Leishmania donovani [2], `c1ccc(-c2nc(N3CCCCC3)nc3c2CCc2ccccc2-3)cc1` displayed an inhibition at 10 µg/mL of 91.8%.

In the case of `c1ccc(-c2nc(N3CCCC3)nc3c2CCc2ccccc2-3)cc1`, 10 µg/mL produced 74.7% inhibition in the assay on Leishmania donovani [2].

For `c1ccc(C2NC(N3CCCC3)=NC3=C2CCc2ccccc23)cc1` (configuration not stated), 10 µg/mL produced 99.8% inhibition with Leishmania donovani [2].

In the case of `Fc1ccc(C2NC(N3CCOCC3)=NC3=C2CCc2ccccc23)cc1` (configuration not stated), at 10 µg/mL the inhibition with Leishmania donovani [2] was 99.6%.

`Clc1ccc(-c2nc(N3CCCC3)nc3c2CCc2ccccc2-3)cc1` gave an inhibition at 10 µg/mL with Leishmania donovani [2] of 58.3%.

In the assay on Leishmania donovani [2], `Clc1ccc(-c2nc(N3CCN(c4ccccn4)CC3)nc3c2CCc2ccccc2-3)c(Cl)c1` registered an inhibition at 10 µg/mL of 15.7%.

Take `Clc1ccc(-c2nc(N3CCN(c4ccccn4)CC3)nc3c2CCc2ccccc2-3)cc1`: 10 µg/mL produced 51.4% inhibition in the assay on Leishmania donovani [2].

`Fc1ccc(-c2nc(N3CCCCC3)nc3c2CCc2ccccc2-3)cc1` showed an inhibition at 10 µg/mL with Leishmania donovani [2] of 47.8%.

On to `c1ccc(-c2nc(N3CCOCC3)nc3c2CCc2ccccc2-3)cc1`, for which, in the assay with Leishmania donovani [2], at 10 µg/mL the inhibition was 71.5%.

`N=C(N)c1ccc(OCCCCCOc2ccc(C(=N)N)cc2)cc1` [PENTAMIDINE] had an inhibition at 10 µg/mL in the assay with Leishmania donovani [2] of 100%.

`Fc1ccc(-c2nc(N3CCCC3)nc3c2CCc2ccccc2-3)cc1` showed an inhibition at 10 µg/mL in the assay on Leishmania donovani [2] of 61.8%.

The molecule `Clc1ccc(C2NC(N3CCCCC3)=NC3=C2CCc2ccccc23)c(Cl)c1` (configuration not stated) came in with an inhibition at 10 µg/mL in the assay with Leishmania donovani [2] of 99.7%.

On to `Fc1ccc(C2NC(N3CCCC3)=NC3=C2CCc2ccccc23)cc1` (configuration not stated), for which the IC50 in the assay with Leishmania donovani [1] came to 4.07 µg/mL (≈ 11.7 µM). Moreover, the inhibition at 10 µg/mL in the assay on Leishmania donovani [2] was determined as 99.9%.

Turning to `Clc1ccc(C2NC(N3CCN(c4ccccn4)CC3)=NC3=C2CCc2ccccc23)c(Cl)c1` (configuration not stated), the IC50 with Leishmania donovani [1] was found to be 6.33 µg/mL (≈ 12.9 µM). This molecule registered an inhibition at 10 µg/mL in the assay on Leishmania donovani [2] of 99.9%.

Consider `Fc1ccc(-c2nc(N3CCOCC3)nc3c2CCc2ccccc2-3)cc1`, for which the inhibition at 10 µg/mL in the assay with Leishmania donovani [2] amounted to 64.8%.

For `Clc1ccc(-c2nc(N3CCOCC3)nc3c2CCc2ccccc2-3)cc1`, the inhibition at 10 µg/mL in the assay with Leishmania donovani [2] was found to be 74.8%.

The molecule `Clc1ccc(C2NC(N3CCOCC3)=NC3=C2CCc2ccccc23)c(Cl)c1` (configuration not stated) gave an inhibition at 10 µg/mL with Leishmania donovani [2] of 99.7%.

The molecule `c1ccc(C2NC(N3CCCCC3)=NC3=C2CCc2ccccc23)cc1` (configuration not stated) displayed an IC50 with Leishmania donovani [1] of 3.48 µg/mL (≈ 10.1 µM). In the assay on Leishmania donovani [2], this molecule showed an inhibition at 10 µg/mL of 99.8%.

`Clc1ccc(-c2nc(N3CCCC3)nc3c2CCc2ccccc2-3)c(Cl)c1`: the inhibition at 10 µg/mL with Leishmania donovani [2] stood at 77.9%.

Turning to `Fc1ccc(C2NC(N3CCCCC3)=NC3=C2CCc2ccccc23)cc1` (configuration not stated), the IC50 with Leishmania donovani [1] came out at 3.22 µg/mL (≈ 8.91 µM). This molecule also yielded an inhibition at 10 µg/mL in the assay on Leishmania donovani [2] of 99.9%.

For the molecule `Clc1ccc(C2NC(N3CCCC3)=NC3=C2CCc2ccccc23)c(Cl)c1` (configuration not stated), at 10 µg/mL the inhibition in the assay with Leishmania donovani [2] was 99.8%.

As for “D-gluconic acid, 2,4:2',4'-O-[oxybis-oxidostibylidyne]bis-, trisodium salt, nonahydrate”, in the assay on Leishmania donovani [2], the inhibition result is “inactive”.

In the assay on Leishmania donovani [1], `Clc1ccc(C2NC(N3CCN(c4ccccn4)CC3)=NC3=C2CCc2ccccc23)cc1` (configuration not stated) had an IC50 of 2.65 µg/mL (≈ 5.81 µM). In the assay on Leishmania donovani [2], this molecule displayed an inhibition at 10 µg/mL of 99.9%.

In the assay with Leishmania donovani [2], `Fc1ccc(-c2nc(N3CCN(c4ccccn4)CC3)nc3c2CCc2ccccc2-3)cc1` registered an inhibition at 10 µg/mL of 44.9%.

`Clc1ccc(-c2nc(N3CCCCC3)nc3c2CCc2ccccc2-3)c(Cl)c1`: the inhibition at 10 µg/mL with Leishmania donovani [2] turned out to be 95.2%.

For the molecule `Clc1ccc(C2NC(N3CCOCC3)=NC3=C2CCc2ccccc23)cc1` (configuration not stated), the IC50 in the assay on Leishmania donovani [1] came to 5.2 µg/mL (≈ 13.7 µM). Also, testing at 10 µg/mL in the assay with Leishmania donovani [2] gave an inhibition of 98.7%.

The molecule `Clc1ccc(C2NC(N3CCCCC3)=NC3=C2CCc2ccccc23)cc1` (configuration not stated) registered an inhibition at 10 µg/mL with Leishmania donovani [2] of 99.6%.

Molecule `c1ccc(C2NC(N3CCOCC3)=NC3=C2CCc2ccccc23)cc1` (configuration not stated) registered an inhibition at 10 µg/mL with Leishmania donovani [2] of 99.9%.

Regarding `Clc1ccc(-c2nc(N3CCOCC3)nc3c2CCc2ccccc2-3)c(Cl)c1`, in the assay on Leishmania donovani [2], the inhibition at 10 µg/mL turned out to be 93.1%.

In the assay with Leishmania donovani [1], `Fc1ccc(C2NC(N3CCN(c4ccccn4)CC3)=NC3=C2CCc2ccccc23)cc1` (configuration not stated) gave an IC50 of 3.58 µg/mL (≈ 8.14 µM). The molecule further showed an inhibition at 10 µg/mL in the assay on Leishmania donovani [2] of 68.2%.
